Measurements published in patent US10238631B2, “Sesquiterpene derivatives and their use in inflammation or cancer treatment” (Academia Sinica, priority 2014, dated 2019).

Experiments:
[1] = tested on: Melanocyte (Normal cells); experiment: MTT cell viability assay, normal melanocytes; format: cell-based, human; conditions: Homo sapiens, Melanocyte, 24 h
Procedure, shortened: (§1)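 Cells seeded at 2×10^3 to 1×10^4 cells/well overnight, then exposed to compounds for 24 h to 72 h. Growth measured by MTT colorimetric assay; viability expressed as OD570 treated/OD570 vehicle (0.5% DMSO) ×100.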

[2] = tested on: MeWo (No NRAS or BRAF mutation); experiment: MTT cell viability assay, MeWo melanoma; format: cell-based, human; conditions: Homo sapiens, MeWo, 24 h
Procedure, shortened: as §1

[3] = tested on: TS/A (ER+, Her2−) murine mammary cancer cells; experiment: MTT cell viability assay, TS/A cells; format: cell-based; conditions: Mus musculus, 24 h, read-out: IC50 on cell viability, TS/A (ER+, Her2−)
Procedure, shortened: (§2)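 Cells (2×10^3 to 1×10^4 cells/well) were seeded overnight, then exposed to compounds for 24 h to 72 h. Growth was measured by MTT colorimetric assay, with viability calculated as OD570 of treated over vehicle (0.5% DMSO) control ×100.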

[4] = tested on: B16-F10 (NRAS mutation); experiment: MTT cell viability assay, B16-F10 melanoma; format: cell-based; conditions: Mus musculus, B16-F10, 24 h, 24 h, read-out: IC50 on cell viability, B16-F10 (NRAS mutation)
Procedure, shortened: as §1

[5] = tested on: MDA-MB-231 (ER−, PR−, Her2−) human breast cancer cells; experiment: MTT cell viability assay, MDA-MB-231 cells; format: cell-based; conditions: Homo sapiens, MDA-MB-231, 24 h, read-out: IC50 on cell viability, MDA-MB-231 (ER−, PR−, Her2−)
Procedure, shortened: as §2

[6] = tested on: LPS-induced nitric oxide (NO) production in RAW 264.7 cells; experiment: Nitric oxide production in LPS-stimulated macrophages (Griess); format: cell-based, mouse; conditions: Mus musculus; LPS-stimulated RAW264.7, nitrite 24 h after LPS
Procedure, shortened: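 RAW 264.7 macrophages (2×10^5 cells/well) were pretreated with compound for 1 h and then stimulated with 100 ng/μL LPS for 24 h. NO was measured as nitrite in the medium by the Griess reaction. Viability was checked in parallel by MTT.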

[7] = tested on: MCF-7 (ER+, Her2−) human breast cancer cells; experiment: MTT cell viability assay, MCF-7 cells; format: cell-based; conditions: MCF7, 24 h, read-out: IC50 on cell viability, MCF-7 (ER+, Her2−)
Procedure, shortened: as §2

[8] = tested on: A375 (BRAF mutation); experiment: MTT cell viability assay, A375 melanoma; format: cell-based, human; conditions: Homo sapiens, A-375, 24 h, 24 h, MTT; read-out: IC50 on cell viability, A375 (BRAF mutation)
Procedure, shortened: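 A375 cells were seeded at 2×10^3 to 1×10^4 per well overnight and then exposed to compounds for 24 h to 72 h. Viability was measured by MTT absorbance at OD570 relative to 0.5% DMSO vehicle (100%), and IC50 was derived from it. Combination with PLX4032 was scored by combination index.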

[9] = tested on: M10 normal mammary epithelial cells; experiment: MTT cell viability assay, M10 normal cells; format: cell-based, human; conditions: Homo sapiens, Epithelial cell, 24 h
Procedure, shortened: as §2

[10] = tested on: RAW264.7 (normal macrophage); experiment: MTT cell viability assay, RAW264.7 macrophages; format: cell-based, mouse; conditions: Mus musculus, RAW264.7, 24 h
Procedure, shortened: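 RAW264.7 macrophages (2×10^5 cells/well) pretreated with compounds 1 h, then incubated 24 h with or without 100 ng/μL LPS. Viability by MTT colorimetric assay run in parallel with Griess nitrite measurement.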

[11] = tested on: A2058 (BRAF mutation); experiment: MTT cell viability assay, A2058 melanoma; format: cell-based, human; conditions: Homo sapiens, A2058, 24 h
Procedure, shortened: as §1

[12] = tested on: melanoma cell lines B16-F10, MeWo, A375, A2058, HTB-68; experiment: MTT cell viability assay, all melanoma cell lines; format: cell-based; conditions: 24 h, read-out: IC50 values over all types of melanoma cell lines
Protocol: Normal or cancer cells (2×10^3 to 1×10^4 cells/well) were seeded in 96-well plate for overnight and treated with different compounds for 24 h to 72 h. Cells growth were determined by MTT-based colorimetric assays according to. Viability of the test cells treated with vehicle (0.5% DMSO) only was defined as 100% viable. Survival of cells after treatment with DETDs was calculated using the following formula: viable cell number (%)=OD570 (treated cell culture)/OD570 (vehicle control)×100.
Several genes are involved in melanoma development and pathology; specifically, mutation in V-raf murine sarcoma viral oncogene homolog B1 (B-RAF) occurs approximately 50-60% and in neuroblastoma RAS viral oncogene homolog (N-RAS) occurs about 30% of malignant melanomas. A spectrum of wild-type or mutated melanoma cell lines including B16-F10, MeWo, A375, A2058, HTB-68, and melanocyte were used to study anti-melanoma cell proliferation activity of parental phytocompound DET and newly synthesized DETDs.

[13] = tested on: HTB-68 (NRAS mutation); experiment: MTT cell viability assay, HTB-68 melanoma; format: cell-based, human; conditions: Homo sapiens, 24 h
Procedure, shortened: as §1

Compound | IC50 [1] [µM] | IC50 [2] [µM] | IC50 [3] [µM] | IC50 [4] [µM] | IC50 [5] [µM] | IC50 [6] [µM] | IC50 [7] [µM] | IC50 [8] [µM] | IC50 [9] [µM] | IC50 [10] [µM] | IC50 [11] [µM] | IC50 [12] [µM] | IC50 [13] [µM]
C=C1C(=O)OC2CC3=C[C@@H](C/C(C)=C/C(OC(=O)/C=C/c4ccc(Cl)cc4)[C@H]12)OC3=O (stereo partly shown) [DETD-28] | > 10 | 6.7 | 1.8 | 3.9 | 4.2 | 2.1 | 3.6 | 3 | 4.8 | > 10 | 4.4 | 1.6 to 9.9 | 6.1
C=C1C(=O)OC2CC3=C[C@@H](C/C(C)=C/C(OC(=O)c4cccs4)[C@H]12)OC3=O (stereo partly shown) [DETD-30] | > 10 | 9.1 | 2.4 | 2.5 | 4.3 | 1.6 | 3.7 | 3.4 | > 7.5 | > 10 | 5.2 | 1.6 to 9.9 | 7.6
C=C1C(=O)OC2CC3=C[C@@H](C/C(C)=C/C(OC(=O)c4ccc(C)cc4)[C@H]12)OC3=O (stereo partly shown) [DETD-33] | > 10 | 6.7 | 1.8 | 2.2 | 4.2 | 1.9 | 2.7 | 2.9 | > 7.5 | > 10 | 4.2 | 1.6 to 9.9 | 5.9
C=C1C(=O)OC2CC3=C[C@@H](C/C(C)=C/C(OC(=O)c4ccc(Br)cc4)[C@H]12)OC3=O (stereo partly shown) [DETD-34] | > 10 | 7.3 | 3 | 2 | 2.2 | 2.3 | 6.1 | 3.1 | > 7.5 | > 10 | 4.4 | 1.6 to 9.9 | 6.8
C=C1C(=O)OC2CC3=C[C@@H](C/C(C)=C/C(OC(=O)/C=C/c4cccc(C(F)(F)F)c4)[C@H]12)OC3=O (stereo partly shown) [DETD-48] | > 10 | > 10 | > 7.5 | > 10 | 8.2 | > 10 | > 7.5 | 6.9 | > 7.5 | > 10 | > 10 | – | > 10
C=C1C(=O)OC2CC3=C[C@@H](C/C(C)=C/C(OC(=O)/C=C/c4ccc(OC)c(OC)c4)[C@H]12)OC3=O (stereo partly shown) [DETD-49] | > 10 | > 10 | > 7.5 | > 10 | 9.5 | 3.4 | > 7.5 | 4.9 | > 7.5 | > 10 | > 10 | – | > 10
C=C1C(=O)OC2CC3=C[C@@H](C/C(C)=C/C(OC(=O)/C=C/c4cccc(OCC)c4)[C@H]12)OC3=O (stereo partly shown) [DETD-50] | > 10 | 9.3 | 4.4 | 9.4 | 7.7 | > 10 | > 7.5 | 4.6 | > 7.5 | > 10 | 8.7 | – | > 10
C=C1C(=O)OC2CC3=C[C@@H](C/C(C)=C/C(OC(=O)CCc4cccc5ccccc45)[C@H]12)OC3=O (stereo partly shown) [DETD-51] | > 10 | > 10 | > 7.5 | > 10 | > 15 | > 10 | > 7.5 | > 10 | > 7.5 | > 10 | > 10 | – | > 10
C=C1C(=O)OC2CC3=C[C@@H](C/C(C)=C/C(OC(=O)Cc4cccc5cccnc45)[C@H]12)OC3=O (stereo partly shown) [DETD-52] | > 10 | > 10 | > 7.5 | > 10 | > 15 | > 10 | > 7.5 | > 10 | > 7.5 | > 10 | > 10 | – | > 10
C=C1C(=O)OC2CC3=C[C@@H](C/C(C)=C/[C@@H](OC(=O)[C@H](OC)c4ccc5ccccc5c4)[C@H]12)OC3=O (stereo partly shown) [DETD-57] | > 10 | > 10 | > 7.5 | 8.1 | > 15 | > 10 | > 7.5 | 4.2 | > 7.5 | > 10 | 8.3 | – | 8
C=C1C(=O)OC2CC3=C[C@@H](C/C(C)=C/[C@@H](OC(=O)Cc4coc5ccccc45)[C@H]12)OC3=O (stereo partly shown) [DETD-59] | > 10 | > 10 | 3.5 | 6.3 | 5.1 | > 10 | > 7.5 | 2.6 | > 7.5 | > 10 | 6 | – | 4.8
C=C1C(=O)OC2CC3=C[C@@H](C/C(C)=C/[C@H](OC(=O)Cc4cccc5ccccc45)[C@H]12)OC3=O (stereo partly shown) [DETD-62] | > 10 | > 10 | > 7.5 | 9.3 | 7.4 | > 10 | > 7.5 | 5 | > 7.5 | > 10 | 8.7 | – | 9
